According to ChEMBL document CHEMBL1201862, “PubChem BioAssay data set” (2004):
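Dose response: 5 concentrations. Exposure: 48 h. Format: 96-well plates. Endpoint: linear interpolation; highest concentration if not reached. GI50 marks 50% less growth.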 Active and inactive are the calls of the source. Rule as the data show it: active = GI50 up to about 1.1 µM and inactive = higher.

How the values were obtained:
Test in all cases: NCI tumour cell line growth inhibition, 48 h
OVCAR-3 = tested on: OVCAR-3
HL-60 = tested on: HL-60
LOX IMVI = tested on: LOX IMVI
COLO 205 = tested on: COLO 205
UACC-62 = tested on: UACC-62
MDA-MB-435 = tested on: MDA-MB-435
MDA-MB-231 = tested on: MDA-MB-231
UO-31 = tested on: UO-31
HCC 2998 = tested on: HCC 2998
SNB-75 = tested on: SNB-75
U-251 = tested on: U-251
NCI-H460 = tested on: NCI-H460
HCT-116 = tested on: HCT-116
MCF7 = tested on: MCF7
MDA-N = tested on: MDA-N
SW-620 = tested on: SW-620
KM12 = tested on: KM12
Malme-3M = tested on: Malme-3M
Hs-578T = tested on: Hs-578T
SF-268 = tested on: SF-268
OVCAR-4 = tested on: OVCAR-4
A498 = tested on: A498
SK-MEL-2 = tested on: SK-MEL-2
NCI/ADR-RES = tested on: NCI/ADR-RES
IGROV-1 = tested on: IGROV-1
ACHN = tested on: ACHN
SNB-19 = tested on: SNB-19
SR = tested on: SR
SK-MEL-28 = tested on: SK-MEL-28
OVCAR-5 = tested on: OVCAR-5
EKVX = tested on: EKVX
786-0 = tested on: 786-0
SK-MEL-5 = tested on: SK-MEL-5
K562 = tested on: K562
RPMI-8226 = tested on: RPMI-8226
CAKI-1 = tested on: CAKI-1
SN12C = tested on: SN12C
DU-145 = tested on: DU-145
HT-29 = tested on: HT-29
NCI-H23 = tested on: NCI-H23
PC-3 = tested on: PC-3
HCT-15 = tested on: HCT-15
RXF 393 = tested on: RXF 393
HOP-62 = tested on: HOP-62
UACC-257 = tested on: UACC-257
MOLT-4 = tested on: MOLT-4
TK-10 = tested on: TK-10
OVCAR-8 = tested on: OVCAR-8
SF-295 = tested on: SF-295
NCI-H226 = tested on: NCI-H226
BT-549 = tested on: BT-549
NCI-H522 = tested on: NCI-H522
SF-539 = tested on: SF-539
A549 = tested on: A549
SK-OV-3 = tested on: SK-OV-3
M14 = tested on: M14
T47D = tested on: T47D
HOP-92 = tested on: HOP-92
CCRF-CEM = tested on: CCRF-CEM

## CSCC[C@H]1C(=O)N=C(N)N1C(=O)OCc1ccccc1
OVCAR-3
  GI50: 38.7 µM (inactive)
HL-60
  GI50: 14.5 µM (inactive)
LOX IMVI
  GI50: 24.5 µM (inactive)
COLO 205
  GI50: 18.7 µM (inactive)
UACC-62
  GI50: 19.1 µM (inactive)
MDA-MB-435
  GI50: 34 µM (inactive)
MDA-MB-231
  GI50: 66.5 µM (inactive)
UO-31
  GI50: 30.8 µM (inactive)
HCC 2998
  GI50: 95.9 µM (inactive)
SNB-75
  GI50: 60.7 µM (inactive)
U-251
  GI50: 34.9 µM (inactive)
NCI-H460
  GI50: 41 µM (inactive)
HCT-116
  GI50: 17.6 µM (inactive)
MCF7
  GI50: 28.8 µM (inactive)
MDA-N
  GI50: 28.9 µM (inactive)
SW-620
  GI50: 17.1 µM (inactive)
KM12
  GI50: 42.9 µM (inactive)
Malme-3M
  GI50: 33.3 µM (inactive)
Hs-578T
  GI50: 18 µM (inactive)
SF-268
  GI50: 38.4 µM (inactive)
OVCAR-4
  GI50: 46.5 µM (inactive)
A498
  GI50: 72.9 µM (inactive)
SK-MEL-2
  GI50: > 100 µM (inactive)
NCI/ADR-RES
  GI50: 30.8 µM (inactive)
IGROV-1
  GI50: 63.7 µM (inactive)
ACHN
  GI50: 34.7 µM (inactive)
SNB-19
  GI50: > 100 µM (inactive)
SR
  GI50: 17.8 µM (inactive)
SK-MEL-28
  GI50: 24.2 µM (inactive)
OVCAR-5
  GI50: > 100 µM (inactive)
EKVX
  GI50: 53.6 µM (inactive)
786-0
  GI50: 26.2 µM (inactive)
SK-MEL-5
  GI50: 46.8 µM (inactive)
K562
  GI50: 21.8 µM (inactive)
RPMI-8226
  GI50: 60 µM (inactive)
CAKI-1
  GI50: 20 µM (inactive)
SN12C
  GI50: 31 µM (inactive)
DU-145
  GI50: > 100 µM (inactive)
HT-29
  GI50: 38.3 µM (inactive)
NCI-H23
  GI50: 17.1 µM (inactive)
PC-3
  GI50: 50.4 µM (inactive)
HCT-15
  GI50: 28.6 µM
RXF 393
  GI50: 17.3 µM (inactive)
HOP-62
  GI50: > 100 µM (inactive)
UACC-257
  GI50: 40.6 µM (inactive)
MOLT-4
  GI50: 18.7 µM (inactive)
TK-10
  GI50: 37.9 µM (inactive)
OVCAR-8
  GI50: 29 µM (inactive)
SF-295
  GI50: 61.7 µM (inactive)
NCI-H226
  GI50: 30 µM (inactive)
BT-549
  GI50: 19.8 µM (inactive)
NCI-H522
  GI50: 19.7 µM (inactive)

## OC(C/C=N/N=C/CC(O)(C(F)(F)Cl)C(F)(F)Cl)(C(F)(F)Cl)C(F)(F)Cl
OVCAR-3
  GI50: > 10 µM (inactive)
HL-60
  GI50: > 10 µM (inactive)
SF-539
  GI50: > 10 µM (inactive)
LOX IMVI
  GI50: > 10 µM (inactive)
COLO 205
  GI50: > 10 µM (inactive)
UACC-62
  GI50: > 10 µM (inactive)
MDA-MB-435
  GI50: > 10 µM (inactive)
MDA-MB-231
  GI50: > 10 µM (inactive)
UO-31
  GI50: > 10 µM (inactive)
HCC 2998
  GI50: > 10 µM (inactive)
SNB-75
  GI50: > 10 µM (inactive)
U-251
  GI50: > 10 µM (inactive)
NCI-H460
  GI50: > 10 µM (inactive)
HCT-116
  GI50: > 10 µM (inactive)
MCF7
  GI50: > 10 µM (inactive)
MDA-N
  GI50: > 10 µM (inactive)
SW-620
  GI50: > 10 µM (inactive)
KM12
  GI50: > 10 µM (inactive)
Malme-3M
  GI50: > 10 µM (inactive)
Hs-578T
  GI50: > 10 µM (inactive)
A549
  GI50: > 10 µM (inactive)
SF-268
  GI50: > 10 µM (inactive)
OVCAR-4
  GI50: > 10 µM (inactive)
A498
  GI50: > 10 µM (inactive)
SK-OV-3
  GI50: > 10 µM (inactive)
SK-MEL-2
  GI50: > 10 µM (inactive)
NCI/ADR-RES
  GI50: > 10 µM (inactive)
IGROV-1
  GI50: > 10 µM (inactive)
ACHN
  GI50: > 10 µM (inactive)
M14
  GI50: > 10 µM (inactive)
SNB-19
  GI50: > 10 µM (inactive)
SR
  GI50: > 10 µM (inactive)
SK-MEL-28
  GI50: > 10 µM (inactive)
EKVX
  GI50: > 10 µM (inactive)
786-0
  GI50: > 10 µM (inactive)
SK-MEL-5
  GI50: > 10 µM (inactive)
K562
  GI50: > 10 µM (inactive)
T47D
  GI50: > 10 µM (inactive)
RPMI-8226
  GI50: > 10 µM (inactive)
CAKI-1
  GI50: > 10 µM (inactive)
SN12C
  GI50: > 10 µM (inactive)
DU-145
  GI50: > 10 µM (inactive)
HOP-92
  GI50: 7.19 µM (inactive)
CCRF-CEM
  GI50: > 10 µM (inactive)
HT-29
  GI50: > 10 µM (inactive)
NCI-H23
  GI50: > 10 µM (inactive)
PC-3
  GI50: > 10 µM (inactive)
HCT-15
  GI50: > 10 µM
RXF 393
  GI50: > 10 µM (inactive)
HOP-62
  GI50: > 10 µM (inactive)
UACC-257
  GI50: > 10 µM (inactive)
MOLT-4
  GI50: > 10 µM (inactive)
TK-10
  GI50: > 10 µM (inactive)
OVCAR-8
  GI50: > 10 µM (inactive)
SF-295
  GI50: > 10 µM (inactive)
NCI-H226
  GI50: > 10 µM (inactive)
NCI-H522
  GI50: > 10 µM (inactive)

## CNC(=S)NNc1ncnc2c1ncn2-c1ccc(C)cc1
OVCAR-3
  GI50: > 100 µM (inactive)
HL-60
  GI50: > 100 µM (inactive)
SF-539
  GI50: > 100 µM (inactive)
LOX IMVI
  GI50: > 100 µM (inactive)
COLO 205
  GI50: > 100 µM (inactive)
UACC-62
  GI50: > 100 µM (inactive)
MDA-MB-435
  GI50: > 100 µM (inactive)
MDA-MB-231
  GI50: 43.9 µM (inactive)
UO-31
  GI50: > 100 µM (inactive)
U-251
  GI50: > 100 µM (inactive)
NCI-H460
  GI50: > 100 µM (inactive)
HCT-116
  GI50: > 100 µM (inactive)
MDA-N
  GI50: > 100 µM (inactive)
SW-620
  GI50: > 100 µM (inactive)
KM12
  GI50: > 100 µM (inactive)
Malme-3M
  GI50: > 100 µM (inactive)
Hs-578T
  GI50: > 100 µM (inactive)
A549
  GI50: > 100 µM (inactive)
SF-268
  GI50: > 100 µM (inactive)
OVCAR-4
  GI50: > 100 µM (inactive)
A498
  GI50: > 100 µM (inactive)
SK-OV-3
  GI50: > 100 µM (inactive)
SK-MEL-2
  GI50: > 100 µM (inactive)
NCI/ADR-RES
  GI50: > 100 µM (inactive)
IGROV-1
  GI50: > 100 µM (inactive)
M14
  GI50: > 100 µM (inactive)
SNB-19
  GI50: > 100 µM (inactive)
SR
  GI50: > 100 µM (inactive)
SK-MEL-28
  GI50: > 100 µM (inactive)
OVCAR-5
  GI50: > 100 µM (inactive)
EKVX
  GI50: > 100 µM (inactive)
786-0
  GI50: > 100 µM (inactive)
SK-MEL-5
  GI50: > 100 µM (inactive)
K562
  GI50: > 100 µM (inactive)
T47D
  GI50: > 100 µM (inactive)
RPMI-8226
  GI50: > 100 µM (inactive)
CAKI-1
  GI50: > 100 µM (inactive)
SN12C
  GI50: > 100 µM (inactive)
DU-145
  GI50: > 100 µM (inactive)
HOP-92
  GI50: > 100 µM (inactive)
CCRF-CEM
  GI50: > 100 µM (inactive)
HT-29
  GI50: > 100 µM (inactive)
NCI-H23
  GI50: > 100 µM (inactive)
PC-3
  GI50: > 100 µM (inactive)
HCT-15
  GI50: > 100 µM
RXF 393
  GI50: > 100 µM (inactive)
HOP-62
  GI50: > 100 µM (inactive)
UACC-257
  GI50: > 100 µM (inactive)
MOLT-4
  GI50: > 100 µM (inactive)
TK-10
  GI50: > 100 µM (inactive)
OVCAR-8
  GI50: > 100 µM (inactive)
SF-295
  GI50: > 100 µM (inactive)
NCI-H226
  GI50: > 100 µM (inactive)
BT-549
  GI50: > 100 µM (inactive)
NCI-H522
  GI50: > 100 µM (inactive)
